Patent EP2108642A1, “JAK INHIBITOR” (Kyowa Hakko Kirin Co., Ltd., priority 2006, dated 2008)
Structures can show the parent of a compound that is named as a salt.

Tests used:
human JAK2 = molecular target: T1, human JAK2 (Homo sapiens, UniProt O60674); test: JAK2 enzyme inhibitory activity (time-resolved fluorescence kinase assay with biotinylated Lyn-substrate peptide); format: biochemical; conditions: at a concentration of 1 µmol/L; His-tagged JAK2 (826-1132 amino acids), 10 µmol/L ATP, 30°C, 60 minutes
T1 construct: a functional domain (826-1132 amino acids) of human JAK2
Description: In order to measure the JAK2 enzyme inhibitory activity, the following process was employed. […] The relative activity (%) of the well containing the test compound was calculated by assuming the activity of the well of the enzyme to which 0.1% DMSO was added as 100% and the activity of the well to which no enzyme was added as 0%, and the difference between 100 and the obtained value was assumed to be the JAK2 inhibition ratio (%) of the test compound.

[1] = system: human acute myeloid leukemia cell line (HEL92.1.7) having a JAK2 V617F mutation; test: Cell growth inhibitory activity against human acute myeloid leukemia cell line (WST-1 assay); format: cell-based; conditions: at a concentration of 10 µmol/L against HEL92.1.7, 72 hours culture
Description: Test Example 2: Cell growth inhibitory activity against human acute myeloid leukemia cell line
The cell growth inhibitory activity of test compound against a human acute myeloid leukemia cell line (HEL92.1.7) (ATCC No. TIB-180) having a JAK2 V617F mutation was measured according to the following process.
A Roswell Park Memorial Institute's Medium (RPMI) 1640 medium (GIBCO, catalog No. 11875-093) containing 10% fetal bovine serum (GIBCO, catalog No. 10437-028) was used to culture each cells. HEL92.1.7 cells controlled at 2. 5 × 10^4 cells/mL were inoculated into a TC MICROWELL 96U plate (Nalge Nunc, catalog No. 163320) at 80 µL per well, and were cultured at 37°C for 4 hours in a 5% carbon dioxide gas incubator. Then, 20 µL per well of DMSO solutions of test compounds adjusted to a final concentration of 10 µmol/L were added to the HEL92.1.7 cells, and the resulting mixtures were cultured again at 37°C for 72 hours in a 5% carbon dioxide gas incubator. Finally, 25 µL of WST-1 reagent {4-[3-(4-indophenyl)-2-(4-nitrophenyl)-2H-5-tetrazolio]-1,3-benz ene disulfonate sodium salt} (Roche Diagnostics K.K., catalog No. 1644807) diluted to 40% with the medium described above was added, and incubation was conducted at 37°C for 2 hours, followed by measuring absorbance at 450 nm (reference wavelength: 690 nm) with a microplate spectrophotometer SPECTRA max 340PC (Molecular Devices). As for the cell growth inhibition ratio, the relative activity (%) of the well containing a test compound was calculated by assuming the activity of the well in which […] a medium to which only DMSO was added as 0%, and then the difference between 100 and the obtained value was assumed as the growth inhibition ratio (%) of the test compound. The higher the value, the stronger the growth inhibition activity against the cells.

T1 sequence (O60674 826-1132): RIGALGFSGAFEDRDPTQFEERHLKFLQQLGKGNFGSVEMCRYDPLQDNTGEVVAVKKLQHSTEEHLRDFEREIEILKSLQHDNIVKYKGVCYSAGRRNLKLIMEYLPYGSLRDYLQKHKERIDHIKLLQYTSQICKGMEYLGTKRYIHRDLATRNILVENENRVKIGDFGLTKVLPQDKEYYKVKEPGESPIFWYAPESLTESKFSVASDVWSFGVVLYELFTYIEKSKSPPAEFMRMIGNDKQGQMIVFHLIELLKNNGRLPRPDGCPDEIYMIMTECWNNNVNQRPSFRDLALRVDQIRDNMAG

| Compound | JAK2 inhibition ratio (human JAK2) [%] | cell growth inhibition ratio [1] [%] |
| --- | --- | --- |
| CCN(CC)Cc1ccc2[nH]c(-c3cc(CN(C)C)cc4c3C(=O)NC4)cc2c1 [Compound 504, 5-(Dimethylaminomethyl)-7-[1H-5-(diethylaminomethyl)indol-2-yl)i soindolinone] | ≥ 50 | ≥ 50 |
| CCN(CC)Cc1ccc2[nH]c(-c3cc(C(O)C(C)C)cc4c3C(=O)NC4)cc2c1 (centres unmarked) [Compound 555, 5-(1-Hydroxy-2-methylpropyl)-7-[1H-5-(diethylaminomethyl)indol-2-yl]isoindolinone hydrochloride] | ≥ 50 | ≥ 50 |
| CN(C)Cc1cc(-c2cc3cc(CN4CCCCC4)ccc3[nH]2)c2c(c1O)CNC2=O [Compound 562, 4-Hydroxy-5-(dimethylaminomethyl)-7-[1H-5-(piperidinomethyl)indol-2-yl]isoindolinone dihydrochloride] | ≥ 50 | ≥ 50 |
| CC(C)Oc1cc2c(c(-c3ccc[nH]3)c1)C(=O)NC2 [Compound 571, 5-(2-Propyloxy)-7-(1H-pyrrol-2-yl)isoindolinone] | ≥ 50 | ≥ 50 |

The next lines start with results.

| JAK2 inhibition ratio (human JAK2) [%] | Compound | cell growth inhibition ratio [1] [%] |
| --- | --- | --- |
| ≥ 50 | O=C1NCc2c(-c3ccc(O)cc3)ccc(-c3cc4cc(CN5CCCCC5)ccc4[nH]3)c21 [Compound 305, 4-(4-Hydroxyphenyl)-7-[1H-5-(piperidinomethyl)indol-2-yl]isoindo linone hydrochloride] | ≥ 50 |
| ≥ 50 | O=C1NCc2c(C#CCCO)ccc(-c3cc4cc(CN5CCCCC5)ccc4[nH]3)c21 [Compound 320, 4-(4-Hydroxy-1-butynyl)-7-[1H-5-(piperidinomethyl)indol-2-yl]iso indolinone hydrochloride] | ≥ 50 |
| ≥ 50 | CN(C)Cc1cc2c(c(-c3cc4cc(CN5CCN(CCO)CC5)ccc4[nH]3)c1)C(=O)NC2 [Compound 483, 5-(Dimethylaminomethyl)-7-{1H-5-[4-(2-hydroxyethyl)piperazin-1-ylmethyl]indol-2-yl}isoindolinone trihydrochloride] | ≥ 50 |
| ≥ 50 | CC(C)Oc1cc2c(c(-c3cc4cc(CN5CCCCC5)ccc4[nH]3)c1)C(=O)NC2 [Compound 484, 5-(2-Propyloxy)-7-[1H-5-(piperidinomethyl)indol-2-yl]isoindolinone hydrochloride] | ≥ 50 |
| ≥ 50 | CC(C)Nc1cc2c(c(-c3cc4cc(CN5CCCCC5)ccc4[nH]3)c1)C(=O)NC2 [Compound 509, 5-(2-Propylamino)-7-[1H-5-(piperidinomethyl)indol-2-yl)isoindoli none dihydrochloride] | ≥ 50 |
| ≥ 50 | Cc1cc(O)ccc1-c1cc2c(c(-c3cc4cc(CN5CCCCC5)ccc4[nH]3)c1)C(=O)NC2 [Compound 550, 5-(4-Hydroxy-2-methylphenyl)-7-[1H-5-(piperidinomethyl)indol-2-yl]isoindolinone] | ≥ 50 |
